From PubChem BioAssay (NCI)
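Tested at 5 concentrations; 48 h exposure; 96-well plates; endpoints linearly interpolated, else capped at highest concentration. At the TGI there is no net growth.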

What was measured:
Assay in all cases: NCI tumour cell line growth inhibition, 48 h
HCT-15 colon = tested on: HCT-15 colon
OVCAR-4 ovarian = tested on: OVCAR-4 ovarian
HOP-62 NSCLC = tested on: HOP-62 NSCLC
EKVX NSCLC = tested on: EKVX NSCLC
ACHN renal = tested on: ACHN renal
MOLT-4 leukemia = tested on: MOLT-4 leukemia
LOX IMVI melanoma = tested on: LOX IMVI melanoma
OVCAR-8 ovarian = tested on: OVCAR-8 ovarian
CAKI-1 renal = tested on: CAKI-1 renal
CCRF-CEM leukemia = tested on: CCRF-CEM leukemia

SMILES | TGI (HCT-15 colon) [µM] | TGI (OVCAR-4 ovarian) [µM] | TGI (HOP-62 NSCLC) [µM] | TGI (EKVX NSCLC) [µM] | TGI (ACHN renal) [µM] | TGI (MOLT-4 leukemia) [µM] | TGI (LOX IMVI melanoma) [µM] | TGI (OVCAR-8 ovarian) [µM] | TGI (CAKI-1 renal) [µM] | TGI (CCRF-CEM leukemia) [µM]
C1CN(c2nc3c(nnc4nc(N5CCOCC5)sc43)s2)CCO1 | > 100 | > 100 | > 100 | > 100 | > 100 | > 100 | > 100 | > 100 | > 100 | > 100
Cc1ccc(C(=O)O)cc1S(=O)(=O)Nn1cnc2ccc(S(=O)(=O)Nc3ccccc3C(=O)O)cc2c1=O | > 100 | > 100 | > 100 | > 100 | > 100 | > 100 | > 100 | > 100 | > 100 | > 100
c1ccc(N=c2sc3ccccc3nc2Nc2ccccc2)cc1 | > 100 | > 100 | > 100 | > 100 | > 100 | > 100 | > 100 | > 100 | > 100 | > 100
Nc1nc(Cl)cc(NCC2(CO)CC(=O)C2)n1 | > 100 | > 100 | > 100 | > 100 | > 100 | > 100 | > 100 | > 100 | > 100 | > 100
COC(=O)c1cc(=O)nc2sc3cccc(C)c3n12 | > 100 | > 100 | > 100 | > 100 | 42.8 | > 100 | 33.8 | 49.2 | 61 | > 100
N#Cc1c(N2CCCC2)ncn(-c2ccccc2)c1=O | > 100 | > 100 | > 100 | > 100 | > 100 | > 100 | > 100 | > 100 | > 100 | > 100
Cc1ccccc1C(=O)N1CCc2c([nH]c3ccccc23)C1 | 62.1 | 74.9 | > 100 | 75 | > 100 | 80 | 50.2 | > 100 | 79.5 | 74
Cc1ccc([N+](=O)[O-])cc1NC1=NCCO1 | > 100 | > 100 | > 100 | > 100 | > 100 | > 100 | > 100 | > 100 | > 100 | > 100
O=C1CSC(c2ccc(Cl)cc2)N1c1ccc(Oc2ccc(Cl)cc2)c(Cl)c1 (stereo not given) | 29.5 | 28.1 | 41.9 | 27.2 | 31.2 | 45 | 30.7 | 35.4 | 26 | 30.6
S=C1Nc2ccccc2SC1c1ccccc1 (stereo not given) | > 100 | > 100 | 55.2 | > 100 | > 100 | > 100 | > 100 | > 100 | > 100 | > 100
CC(C)(C)N1CSC(=S)N(Cc2ccco2)C1 | 10.6 | 26.7 | 19.4 | 30.2 | 13.7 | 5.72 | 14.6 | 5.63 | 12.4 | 4.03
O=[N+]([O-])c1cccc(-c2csc(NNC3=NC/C(=C/c4ccc5c(c4)OCO5)S3)n2)c1 | > 100 | > 100 | > 100 | 41 | > 100 | > 100 | > 100 | 47.2 | > 100 | > 100
C[C@@H](NC(=O)[C@@H]1C[C@]1(C)COC(=O)c1cc([N+](=O)[O-])cc([N+](=O)[O-])c1)c1cccc2ccccc12 | > 100 | > 100 | > 100 | > 100 | > 100 | > 100 | > 100 | > 100 | > 100 | > 100
C#CCNC(CS)C(=O)O (stereo not given) | > 100 | > 100 | > 100 | > 100 | > 100 | > 100 | > 100 | > 100 | > 100 | > 100
